Measurements from ChEMBL document CHEMBL1139965, “Synthesis and antifungal activities of new fluconazole analogues with azaheterocycle moiety” (2007).
In brackets after ≈: the same amount, converted by molar mass.

Legend:
Candida albicans = assay: Antifungal activity against Candida albicans CA980001 by alamar blue assay; format: functional
Aspergillus fumigatus = assay: Antifungal activity against Aspergillus fumigatus AF980003 by alamar blue assay; format: functional

Structure (SMILES) | MIC (Candida albicans) | MIC (Aspergillus fumigatus)
OC(Cn1cncn1)(Cn1nc2ccccc2n1)c1ccc(F)cc1F (stereo unspecified) | > 0.036 µg/mL | > 100 µg/mL
O[C@@](Cn1cncn1)(Cn1ccc2cccnc21)c1ccc(F)cc1F | 0.007 µg/mL (≈ 0.0197 µM) | 21 µg/mL (≈ 59.1 µM)
O[C@@](Cn1cncn1)(Cn1cnc2ccccc21)c1ccc(Cl)cc1Cl | 0.026 µg/mL (≈ 0.067 µM) | > 100 µg/mL
C[C@@H]1[C@H](O)[C@@H](C)/C=C/C=C/C=C/C=C/C=C/C=C/C=C/[C@H](O[C@@H]2O[C@H](C)[C@@H](O)[C@H](N)[C@@H]2O)C[C@@H]2O[C@](O)(C[C@@H](O)C[C@@H](O)[C@H](O)CC[C@@H](O)C[C@@H](O)CC(=O)O[C@H]1C)C[C@H](O)[C@H]2C(=O)O [AMPHOTERICIN B] | 0.12 µg/mL (≈ 0.13 µM) | 0.14 µg/mL (≈ 0.152 µM)
CCOC(=O)Cc1cn(C[C@@](O)(Cn2cncn2)c2ccc(Cl)cc2Cl)c2ccccc12 | 0.006 µg/mL (≈ 0.0127 µM) | > 100 µg/mL
CCOC(=O)CCc1cn(C[C@@](O)(Cn2cncn2)c2ccc(Cl)cc2Cl)c2ccccc12 | 0.33 µg/mL (≈ 0.677 µM) | > 100 µg/mL
O[C@@](Cn1cncn1)(Cn1nnc2ccccc21)c1ccc(Cl)cc1Cl | 0.02 µg/mL (≈ 0.0514 µM) | > 100 µg/mL
O=C1CCCc2c1ccn2C[C@@](O)(Cn1cncn1)c1ccc(Cl)cc1Cl | 0.07 µg/mL (≈ 0.173 µM) | > 100 µg/mL
O[C@@](Cn1cncn1)(Cn1ncc2ccccc21)c1ccc(F)cc1F | 0.019 µg/mL (≈ 0.0535 µM) | 24 µg/mL (≈ 67.5 µM)
OC(Cn1cncn1)(Cn1nc2ccccc2n1)c1ccc(Cl)cc1Cl (stereo unspecified) | 0.01 µg/mL (≈ 0.0257 µM) | > 100 µg/mL
O[C@](CN1CCc2ccccc21)(Cn1cncn1)c1ccc(Cl)cc1Cl | 2.72 µg/mL (≈ 6.99 µM) | > 100 µg/mL
OC(Cn1cncn1)(Cn1cncn1)c1ccc(F)cc1F [FLUCONAZOLE] | 0.02 µg/mL (≈ 0.0653 µM) | –
O[C@](CNc1ccc2[nH]ccc2c1)(Cn1cncn1)c1ccc(Cl)cc1Cl | 0.026 µg/mL (≈ 0.0646 µM) | > 100 µg/mL
CCC(C)n1ncn(-c2ccc(N3CCN(c4ccc(OCC5COC(Cn6cncn6)(c6ccc(Cl)cc6Cl)O5)cc4)CC3)cc2)c1=O (stereo unspecified) [ITRACONAZOLE] | – | 0.5 µg/mL (≈ 0.709 µM)
O[C@@](Cn1cncn1)(Cn1ncc2ccccc21)c1ccc(Cl)cc1Cl | 0.0007 µg/mL (≈ 0.0018 µM) | > 100 µg/mL
O[C@@](Cn1cncn1)(Cn1nnc2ccccc21)c1ccc(F)cc1F | 0.025 µg/mL (≈ 0.0702 µM) | > 100 µg/mL
O=Cc1cn(C[C@@](O)(Cn2cncn2)c2ccc(Cl)cc2Cl)c2ccccc12 | 0.045 µg/mL (≈ 0.108 µM) | > 100 µg/mL
O[C@@](Cn1cncn1)(Cn1cnc2ccccc21)c1ccc(F)cc1F | 0.233 µg/mL (≈ 0.656 µM) | > 100 µg/mL
O[C@@](Cn1cncn1)(Cn1ccc2cccnc21)c1ccc(Cl)cc1Cl | 0.0031 µg/mL (≈ 0.00798 µM) | 29 µg/mL (≈ 74.7 µM)
